Assay results as given in US8492396B2, “Therapeutic uses of adrenergic α-1 receptor antagonists” (SANOFI, priority 2007, dated 2013).

Key:
[1] = tested on: urinary bladder; assay: CYP-evoked plasma protein extravasation (Evans blue) in urinary bladder; type: in vivo; conditions: CYP 150 mg/kg i.p., 90 min after CYP; ruthenium red 4 mg/kg s.c.; camphor 50 μmol/kg i.p.
Method: Male Sprague-Dawley rats and Swiss mice were administered with CYP (150 mg/kg, i.p.) or its vehicle (0.9% NaCl) for cystitis induction. 48 hours later urinary bladders were removed and placed in an organ bath for motor response measurement. Writhing behaviors and plasma protein extravasation were investigated 90 min after the CYP administration. Intraperitoneal administration of cyclophosphamide (150 mg/kg, 48 h before) is known to decrease bladder capacity and increased micturition frequency (Maggi et al., 1992, J Auton Nerv Syst, 38, 201-8). These effects of cyclophosphamide were abolished in rats pretreated with capsaicin as adults (Maggi et al., 1992, J Auton Nerv Syst, 38, 201-8). Thus, the inflammatory responses to cyclophosphamide are mediated by neurogenic inflammatory mechanisms. Evans blue dye was used to measure plasma extravasation. The proinflammatory stimulus was given immediately after the injection of the dye (30 mg/kg i.v. over 5 s) in the jugular vein. The chest was opened 10 min or at different time intervals as required after the injection of Evans blue and the animal perfused for 3 min with a phosphate buffer. The urinary bladder, urethra and prostate were removed, blotted and weighed. […] The amount of Evans blue extravasated from the […] was measured using a spectrophotometer and expressed as ng/mg of wet weight.

[2] = tested on: strips of rat urinary bladder; assay: eNANC contractile response to electrical field stimulation in isolated urinary bladder strips from CYP-treated rats; type: in vivo; conditions: intravenous pretreatment 30 μg/kg; bladders taken 48 h after CYP 150 mg/kg i.p.
Method: Male Sprague-Dawley rats and Swiss mice were administered with CYP (150 mg/kg, i.p.) or its vehicle (0.9% NaCl) for cystitis induction. 48 hours later urinary bladders were removed and placed in an organ bath for motor response measurement. Writhing behaviors and plasma protein extravasation were investigated 90 min after the CYP administration. Strips of rat urinary bladder were taken from terminally anesthetized animals and mounted in organ baths and after an equilibration period the eNANC contractile response to electrical field stimulation (EFS, 5 Hz, 1 ms width, 10 V) in the absence and presence of atropine (1 μM) is studied (Rigoni et al., 2003, Br J Pharmacol, 138, 977-85) The contraction produced by EFS in these experimental conditions is entirely mediated by SP and NKA released from terminals of primary sensory neurons. The eNANC response to EFS was reproducible at 60 min intervals. The effect of alfuzosin or its vehicle on the eNANC response to EFS was studied in parallel experiments. At the beginning or end of each experiment tissues were challenged with carbachol (1 μM). The effect of alfuzosin was studied also in bladder strips obtained from rats treated with cyclophosphamide. […]

[3] = tested on: urinary bladder taken from CYP-treated rats; assay: contractile response to capsaicin in urinary bladder taken from CYP-treated rats; type: in vivo, rat; conditions: pretreatment with alfuzosin; bladders from CYP-treated rats
Method: Male Sprague-Dawley rats and Swiss mice were administered with CYP (150 mg/kg, i.p.) or its vehicle (0.9% NaCl) for cystitis induction. 48 hours later urinary bladders were removed and placed in an organ bath for motor response measurement. Writhing behaviors and plasma protein extravasation were investigated 90 min after the CYP administration. […] The eNANC response to EFS was reproducible at 60 min intervals. The effect of alfuzosin or its vehicle on the eNANC response to EFS was studied in parallel experiments. At the beginning or end of each experiment tissues were challenged with carbachol (1 μM). The effect of alfuzosin was studied also in bladder strips obtained from rats treated with cyclophosphamide.

[4] = tested on: mice; assay: writhings evoked by intraperitoneal acetic acid in CYP-treated mice; type: in vivo; conditions: pre-treatment 30 μg/kg i.v., CYP 150 mg/kg i.p.
Method: Male Sprague-Dawley rats and Swiss mice were administered with CYP (150 mg/kg, i.p.) or its vehicle (0.9% NaCl) for cystitis induction. 48 hours later urinary bladders were removed and placed in an organ bath for motor response measurement. Writhing behaviors and plasma protein extravasation were investigated 90 min after the CYP administration.

SMILES | CYP-evoked plasma protein extravasation in urinary bladder [1] | reversal of CYP-induced reduction of the contractile response to EFS (eNANC, in the presence of atropine) [2] | reversal of CYP-induced reduction of the contractile response to capsaicin [3] | reduction of the CYP-induced increase in number of writhings evoked by acetic acid [4]
CC12CCC(CC1=O)C2(C)C (centres unmarked) [camphor] | completely prevented |  |  | 
N.N.N.N.N.N.N.N.N.N.N.N.N.N.[Cl-].[Cl-].[Cl-].[Cl-].[Cl-].[Cl-].[O-2].[O-2].[Ru+3].[Ru+3].[Ru+4] [ruthenium red] | completely prevented |  |  | 
COc1cc2nc(N(C)CCCNC(=O)C3CCCO3)nc(N)c2cc1OC (centres unmarked) [alfuzosin] |  | > 50 % of reversal | ~50 % of reversal | 48 % of reduction
